The source of these data is US20070149456A1, “Epithelial sodium channel inhibiting agents and uses therefor” (University of Pittsburgh, priority 2005, published 2007).

Entries after “also recorded” stand apart in the source; their conditions may differ.

The assay has as its target T1, αRtripleAβγ (Mus musculus, UniProt Q61180+Q9WU38+Q9WU39, R205A/R208A/R231A).
T1 construct: expressed in transfected cells; host or cells: Xenopus laevis oocytes (cRNA injection)
T1 sequence (Q61180 1-699 R205A/R208A/R231A): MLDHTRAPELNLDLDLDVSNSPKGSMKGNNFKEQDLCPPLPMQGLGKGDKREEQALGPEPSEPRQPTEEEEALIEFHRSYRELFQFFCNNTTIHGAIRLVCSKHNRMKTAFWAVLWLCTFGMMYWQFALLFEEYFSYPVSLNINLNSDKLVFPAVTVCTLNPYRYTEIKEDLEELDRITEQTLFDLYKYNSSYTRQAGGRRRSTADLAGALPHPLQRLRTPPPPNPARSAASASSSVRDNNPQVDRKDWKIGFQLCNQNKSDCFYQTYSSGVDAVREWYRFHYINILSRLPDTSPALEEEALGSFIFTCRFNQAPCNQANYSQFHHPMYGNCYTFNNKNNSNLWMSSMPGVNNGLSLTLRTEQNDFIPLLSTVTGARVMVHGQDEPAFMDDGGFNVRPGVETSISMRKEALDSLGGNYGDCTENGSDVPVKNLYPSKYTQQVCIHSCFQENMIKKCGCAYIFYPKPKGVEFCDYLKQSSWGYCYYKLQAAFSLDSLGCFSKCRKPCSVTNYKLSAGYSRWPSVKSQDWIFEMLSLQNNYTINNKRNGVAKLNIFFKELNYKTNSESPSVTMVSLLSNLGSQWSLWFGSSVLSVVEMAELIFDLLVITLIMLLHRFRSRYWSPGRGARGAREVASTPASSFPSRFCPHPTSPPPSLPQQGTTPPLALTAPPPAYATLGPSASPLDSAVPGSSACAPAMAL
T1 sequence (Q9WU38 1-638): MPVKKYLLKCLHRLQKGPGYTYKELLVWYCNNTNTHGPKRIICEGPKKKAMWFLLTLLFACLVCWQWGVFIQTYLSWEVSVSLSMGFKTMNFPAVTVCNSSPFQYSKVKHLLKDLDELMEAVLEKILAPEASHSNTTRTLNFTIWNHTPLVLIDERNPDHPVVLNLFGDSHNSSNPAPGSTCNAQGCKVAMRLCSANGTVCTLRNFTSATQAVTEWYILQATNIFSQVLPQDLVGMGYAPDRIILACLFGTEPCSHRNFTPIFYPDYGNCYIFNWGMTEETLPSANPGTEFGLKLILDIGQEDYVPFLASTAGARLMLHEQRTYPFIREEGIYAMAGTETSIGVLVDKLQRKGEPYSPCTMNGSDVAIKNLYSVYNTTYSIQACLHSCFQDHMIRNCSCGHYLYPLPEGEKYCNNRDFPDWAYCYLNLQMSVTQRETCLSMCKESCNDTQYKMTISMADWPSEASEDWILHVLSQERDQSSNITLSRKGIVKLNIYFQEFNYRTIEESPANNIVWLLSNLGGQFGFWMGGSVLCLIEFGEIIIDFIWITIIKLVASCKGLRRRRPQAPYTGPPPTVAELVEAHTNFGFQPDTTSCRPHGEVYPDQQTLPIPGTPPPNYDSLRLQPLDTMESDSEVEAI
T1 sequence (Q9WU39 1-655): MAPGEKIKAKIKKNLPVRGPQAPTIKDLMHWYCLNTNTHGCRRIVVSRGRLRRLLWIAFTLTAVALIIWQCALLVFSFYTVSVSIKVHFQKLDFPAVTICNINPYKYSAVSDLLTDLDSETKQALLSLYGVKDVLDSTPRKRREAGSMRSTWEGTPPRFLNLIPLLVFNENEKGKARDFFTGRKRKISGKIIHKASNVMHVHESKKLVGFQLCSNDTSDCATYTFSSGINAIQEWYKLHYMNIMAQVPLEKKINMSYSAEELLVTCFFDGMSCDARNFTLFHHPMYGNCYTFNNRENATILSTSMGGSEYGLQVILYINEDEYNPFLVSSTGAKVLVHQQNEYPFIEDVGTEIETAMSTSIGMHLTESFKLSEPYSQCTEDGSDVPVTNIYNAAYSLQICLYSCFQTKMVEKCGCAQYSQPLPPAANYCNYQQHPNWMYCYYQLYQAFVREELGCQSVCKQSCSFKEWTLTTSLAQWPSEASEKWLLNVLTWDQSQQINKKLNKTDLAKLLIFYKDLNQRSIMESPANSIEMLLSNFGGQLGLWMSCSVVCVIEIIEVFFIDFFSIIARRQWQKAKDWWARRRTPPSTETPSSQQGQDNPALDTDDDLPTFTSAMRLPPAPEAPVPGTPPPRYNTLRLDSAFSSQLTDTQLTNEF
In words: Two-electrode voltage clamp in oocytes expressing channels lacking furin cleavage of the α subunit. It counts as cell-based. As to conditions: 1 μM α-26. The text has this:
Oocyte Expression—cRNAs for α, β, γ mouse ENaC (wild-type and mutant) subunits and mouse prostasin were synthesized with T3 or T7 m-Message mMachineTM (Ambion, Austin, Tex.). Subunits carrying furin cleavage consensus site mutations and the corresponding wild-type subunits have amino-terminal HA and carboxyl-terminal V5 tags (Hughey, R. P., Bruns, J. B., Kinlough, C. L., Harkleroad, K. L., Tong, Q., Carattino, M. D., Johnson, J. P., Stockand, J. D., and Kleyman, T. R. (2004) J. Biol. Chem. 279, 18111-18114 18). Stage V-VI Xenopus laevis oocytes were pretreated with 1.5 mg/ml of type IV collagenase and injected with 0.5-2 ng of cRNA/subunit. Injected oocytes were maintained as previously reported (Carattino, M. D., Hill, W. G., and Kleyman, T. R. (2003), Arachidonic Acid Regulates Surface Expression of Epithelial Sodium Channels, J Biol. Chem. 278, 36202-36213 29).
Two-electrode Voltage Clamp—Two-electrode voltage clamp (TEV) was performed as previously described (Carattino, M. D., Hill, W. G., and Kleyman, T. R. (2003) J Biol. Chem. 278, 36202-36213 29). The extracellular solution (TEV solution) was (in mM): 110 NaCl, 2 KCl, 1.54 CaCl2, 10 HEPES, pH 7.4, or otherwise as indicated. […] ENaC-mediated whole cell Na^+ currents, at −60 mV,were defined as the amiloride-sensitive component of the current. […]
A general note: Two-electrode voltage clamp holds a large cell at a set potential and records current.

On to “Ac-DLRGALPHPLQRLRTPPPPNPARSAR-NH2 [α-26]”, for which the “block of channels” value is “does not block; also recorded: not blocked”.
